Measurements published in ChEMBL document CHEMBL5506043, “A β-Carboline Derivate PAD4 Inhibitor Reshapes Neutrophil Phenotype and Improves the Tumor Immune Microenvironment against Triple-Negative Breast Cancer” (J Med Chem, 2024).

Assays:
[1] = tested on: 4T1; test: Antiproliferative activity against mouse 4T1 cells assessed as inhibition of cell growth incubated for 48 hrs by MTT assay; assay type: functional, cell-based; conditions: 4T1, 48 h
[2] = target: Protein-arginine deiminase type-2 (Homo sapiens, UniProt Q9Y2J8); test: Inhibition of PAD2 (unknown origin) using Nalpha-benzoyl-L-arginine ethyl ester as substrate preincubated for 60 mins followed by substrate addition and measured after 90 mins by colorimetric analysis
[3] = tested on: MDA-MB-468; test: Antiproliferative activity against human MDA-MB-468 cells assessed as inhibition of cell growth incubated for 48 hrs by MTT assay; assay type: functional, cell-based; conditions: MDA-MB-468, 48 h
[4] = target: Protein-arginine deiminase type-4 (Homo sapiens, UniProt Q9UM07); test: Inhibition of PAD4 (unknown origin) using Nalpha-benzoyl-L-arginine ethyl ester as substrate preincubated for 60 mins followed by substrate addition and measured after 90 mins by colorimetric analysis
[5] = Cytotoxicity against human MCF-10A cells assessed as inhibition of cell growth incubated for 48 hrs by MTT assay; assay type: toxicity, cell-based

Protein-arginine deiminase type-2, sequence (Q9Y2J8 whole entry): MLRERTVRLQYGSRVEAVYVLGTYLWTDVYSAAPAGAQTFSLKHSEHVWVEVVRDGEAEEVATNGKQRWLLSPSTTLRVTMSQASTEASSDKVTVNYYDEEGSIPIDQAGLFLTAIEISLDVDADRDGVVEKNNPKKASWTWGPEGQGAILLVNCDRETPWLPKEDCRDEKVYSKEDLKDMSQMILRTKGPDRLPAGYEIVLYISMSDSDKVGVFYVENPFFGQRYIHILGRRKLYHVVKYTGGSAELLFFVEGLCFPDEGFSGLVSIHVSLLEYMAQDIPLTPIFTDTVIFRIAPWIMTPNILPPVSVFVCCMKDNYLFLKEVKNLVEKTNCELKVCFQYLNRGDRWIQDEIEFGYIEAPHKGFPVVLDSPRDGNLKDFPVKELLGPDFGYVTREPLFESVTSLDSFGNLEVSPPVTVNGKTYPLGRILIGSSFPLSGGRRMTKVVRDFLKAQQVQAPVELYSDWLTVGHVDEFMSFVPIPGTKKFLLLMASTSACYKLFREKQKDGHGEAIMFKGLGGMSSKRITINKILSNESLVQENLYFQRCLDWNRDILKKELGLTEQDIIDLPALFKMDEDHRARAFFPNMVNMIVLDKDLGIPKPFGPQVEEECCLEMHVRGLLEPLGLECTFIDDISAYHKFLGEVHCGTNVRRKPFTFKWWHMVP
Protein-arginine deiminase type-4, sequence (Q9UM07 whole entry): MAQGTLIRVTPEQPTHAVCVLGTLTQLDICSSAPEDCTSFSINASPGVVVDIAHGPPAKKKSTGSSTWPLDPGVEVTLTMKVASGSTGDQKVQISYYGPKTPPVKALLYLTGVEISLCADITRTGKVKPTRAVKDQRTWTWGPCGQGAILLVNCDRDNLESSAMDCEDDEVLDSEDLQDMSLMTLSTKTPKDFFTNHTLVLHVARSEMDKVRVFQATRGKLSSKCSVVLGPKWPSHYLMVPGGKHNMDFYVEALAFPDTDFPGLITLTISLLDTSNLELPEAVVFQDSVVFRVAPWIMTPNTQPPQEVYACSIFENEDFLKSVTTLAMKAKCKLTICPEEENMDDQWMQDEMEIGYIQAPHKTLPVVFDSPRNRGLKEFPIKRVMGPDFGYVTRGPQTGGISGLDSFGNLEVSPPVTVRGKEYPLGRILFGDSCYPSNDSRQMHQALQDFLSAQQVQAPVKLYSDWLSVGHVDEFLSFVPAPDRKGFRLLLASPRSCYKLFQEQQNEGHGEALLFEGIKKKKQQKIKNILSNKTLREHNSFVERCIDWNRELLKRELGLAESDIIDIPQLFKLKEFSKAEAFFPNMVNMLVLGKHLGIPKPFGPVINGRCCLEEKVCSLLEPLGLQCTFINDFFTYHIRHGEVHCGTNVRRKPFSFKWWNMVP

SMILES | IC50 [1] [µM] | IC50 [2] [µM] | IC50 [3] [µM] | IC50 [4] [nM] | IC50 at 48 h [5] [µM]
N=C(CCl)NCCC[C@H](NC(=O)c1cc2c([nH]c3ccccc32)c(-c2cccs2)n1)C(=O)NCc1ccccc1 | 7.64 | 3.77 | 3.99 | 1320 | 8.03
N#Cc1ccc(-c2nc(C(=O)N[C@@H](CCCNC(=N)CCl)C(=O)NCc3ccccc3)cc3c2[nH]c2ccccc23)cc1 | 18.3 | 3 | 4.36 | 1610 | 11.1
N=C(CCl)NCCC[C@H](NC(=O)c1cc2c([nH]c3ccccc32)c(-c2ncc[nH]2)n1)C(=O)NCc1ccccc1 | 6.67 | 10.8 | 6.94 | 3120 | 12.4
Cc1nc(C(=O)N[C@@H](CCCNC(=N)CCl)C(=O)NCc2ccccc2)cc2c1[nH]c1ccccc12 | 18.9 | 0.83 | 6.73 | 760 | 18.2
COc1ccc(-c2nc(C(=O)N[C@@H](CCCNC(=N)CCl)C(=O)NCc3ccccc3)cc3c2[nH]c2ccccc23)cc1 | 7.48 | 3.04 | 4.2 | 1700 | 6.27
N=C(CCl)NCCC[C@H](NC(=O)c1ccc2nccnc2c1)C(=O)NCc1ccccc1 | 46.2 | 2.28 | 69.5 | 2640 | 54
N=C(CCl)NCCC[C@H](NC(=O)c1c[nH]c2ccccc12)C(=O)NCc1ccccc1 | 99.9 | 0.35 | 117 | 700 | 120
Cc1ccc(-c2nc(C(=O)N[C@@H](CCCNC(=N)CCl)C(=O)NCc3ccccc3)cc3c2[nH]c2ccccc23)cc1 | 8.02 | > 10 | 6.94 | 10000 | 17.5
N=C(CCl)NCCC[C@H](NC(=O)[C@@H]1Cc2ccccc2CN1)C(=O)NCc1ccccc1 | 74 | 11.6 | > 100 | 6460 | > 100
CC(C)(C)c1nc(C(=O)N[C@@H](CCCNC(=N)CCl)C(=O)NCc2ccccc2)cc2c1[nH]c1ccccc12 | 7.51 | 4.32 | 4.31 | 1200 | 3.08
CC(C)c1nc(C(=O)N[C@@H](CCCNC(=N)CCl)C(=O)NCc2ccccc2)cc2c1[nH]c1ccccc12 | 11.5 | 1.14 | 5.2 | 1180 | 4.07
N=C(CCl)NCCC[C@H](NC(=O)c1cc2c([nH]c3ccccc32)c(-c2ccc(O)cc2)n1)C(=O)NCc1ccccc1 | 22.9 | 2.26 | 30.5 | 1080 | 51.8
Cn1c(-c2nc(C(=O)N[C@@H](CCCNC(=N)CCl)C(=O)NCc3ccccc3)cc3c2[nH]c2ccccc23)nc2ccccc21 | 3.77 | > 10 | 4.82 | > 10000 | 5.3
